{"source": "patent US12569686B2", "about": "“Chronically implantable systems and methods for affecting cardiac contractility and/or relaxation” (Cardionomix, Inc., priority 2020, dated 2026)", "system": "normal, non-HF ovine model", "assay": "Change in ventricle contractility (max dP/dt as surrogate) and beat-by-beat correlation of right and left ventricle contractility after an injection", "format": "in vivo", "details": "pressure max (dP/dt) used as surrogate for contractility, calcium at 5 mL", "from_the_text": "The correlation was a heartbeat-by-heartbeat analysis. Pressure measurements, taken by a Millar catheter comprising a MEMS pressure sensor, in units of max (dP/dt) was used as a surrogate for contractility. The first change, a dobutamine injection, provided a very high contractility increase greater than 500%. The average correlation between right ventricle contractility and left ventricle contractility was very good at 0.91, where 1.00 is a perfect correlation. Accordingly, if a subject is given a dobutamine injection, measuring changes to right ventricle contractility can provide accurate information about changes to left ventricle contractility. The first change was repeated three times. The second change, calcium injection at 5 mL, provided a contractility increase of about 20%. […] The average correlation between right ventricle contractility and left ventricle contractility using a Millar (MEMS) sensor on a catheter was very good at 0.91. The average correlation between right ventricle contractility and left ventricle contractility using a fluid-filled lumen of a Swan-Ganz catheter in communication with an external pressure sensor was also very good at 0.87. […]"}
{"substance": "calcium [Calcium Injection]", "values": [{"measurement": "Contractility % Increase", "value": "~20", "unit": "%"}, {"measurement": "Contractility % Increase", "setting": "listed as calcium injection", "value": "about 20%"}]}
